Source: PubChem BioAssay AID1224898

These molecules were tested on Trichuris muris adults ex vivo, WormWatcher motility, 24 h (assay: motility loss in adult Trichuris muris, dose response, whole organism, ex vivo, WormWatcher (AID 1224898)).

| Structure (SMILES) | EC50 [µM] |
| --- | --- |
| O=C1COCc2cc(-c3cccnc3)ccc2N1Cc1ccc(C(F)(F)F)cc1 | 26 |
| O=C1COCc2cc(-c3cccnc3)ccc2N1CC1CCCCC1 | 52 |
| Cc1ccc(CN2C(=O)COCc3cc(-c4cccnc4)ccc32)cc1 | 57 |
| Cc1ccc(CN2C(=O)COCc3cc(Br)ccc32)cc1 | 35 |
| Cc1ccc(CN2C(=O)COCc3cc(-c4ccncc4)ccc32)cc1 | 50 |
